Source: patent US20170224654A1, “PHARMACEUTICAL COMPOSITIONS AND METHODS FOR COUNTERING CHEMOTHERAPY INDUCED CARDIOTOXICITY” (Stem Cell Theranostics, Inc., priority 2016, published 2017)
Values belong to the compound of their own block, whether it stands above or below them.

Columns and labels:
[1] = test system: patient; assay: Patient treatment examples (echocardiogram / electrocardiogram); assay type: in vivo, human; conditions: for QT prolongation (in words): doxorubicin (5 mg/mL) given with the protective agent
Experimental: A patient, with a history of heart disease, is diagnosed with breast cancer. Due to an increased risk for heart failure, the patient is unable to receive the standard treatment regimen of doxorubicin, which is known to induce cardiotoxicity. Instead, the caregiver administers a co-formulation of doxorubicin (10 mg) and vitexin (100 mg). An echocardiogram is performed and blood flow rate is measured to determine if the therapy has a cardiotoxic effect in the patient.
A patient is diagnosed with liver cancer. […] The patient presents with a 20 ms QT prolongation. […] The patient is able to continue receiving treatment over several weeks after which a tissue biopsy is performed to confirm the liver cancer has been eradicated.
(§1) A patient is diagnosed with stage II lung cancer, and presents with bradycardia. Due to an increased risk for heart failure, the patient is unable to receive the standard treatment regimen of doxorubicin, which is known to affect cardiac contraction and induce bradycardia. Instead, the caregiver administers a co-formulation of doxorubicin (10 mg) and myricetin (100 mg). An electrocardiogram is used to monitor the patient's heart rate. […] The lung cancer is down-staged to stage 1, and the cancer is successfully removed with surgery.
as §1, with “myricetin (100 mg) 24 hours before administration” for “a co-formulation”, “(10” for “(10 mg) and myricetin (100”

[2] = test system: Human iPSC-derived cardiomyocytes; assay: DOX-induced DNA double strand break (γH2AX immunostaining); assay type: cell-based; conditions: DOX 0.5 μM plus 100 μM agent, 48 hours
[3] = test system: TOPOIIβ mRNA expression; assay: mRNA expression level in cardiomyocytes; assay type: cell-based
[4] = biological target: T1, TOPOIIβ (Homo sapiens, UniProt Q02880); assay: kDNA decatenation assay; assay type: biochemical; conditions: for IC50: 37° C., 30 min, n=3, read-out: IC50 of TOPOIIβ enzyme activity
T1 construct: purchased Inspiralis
T1 sequence (Q02880 whole entry): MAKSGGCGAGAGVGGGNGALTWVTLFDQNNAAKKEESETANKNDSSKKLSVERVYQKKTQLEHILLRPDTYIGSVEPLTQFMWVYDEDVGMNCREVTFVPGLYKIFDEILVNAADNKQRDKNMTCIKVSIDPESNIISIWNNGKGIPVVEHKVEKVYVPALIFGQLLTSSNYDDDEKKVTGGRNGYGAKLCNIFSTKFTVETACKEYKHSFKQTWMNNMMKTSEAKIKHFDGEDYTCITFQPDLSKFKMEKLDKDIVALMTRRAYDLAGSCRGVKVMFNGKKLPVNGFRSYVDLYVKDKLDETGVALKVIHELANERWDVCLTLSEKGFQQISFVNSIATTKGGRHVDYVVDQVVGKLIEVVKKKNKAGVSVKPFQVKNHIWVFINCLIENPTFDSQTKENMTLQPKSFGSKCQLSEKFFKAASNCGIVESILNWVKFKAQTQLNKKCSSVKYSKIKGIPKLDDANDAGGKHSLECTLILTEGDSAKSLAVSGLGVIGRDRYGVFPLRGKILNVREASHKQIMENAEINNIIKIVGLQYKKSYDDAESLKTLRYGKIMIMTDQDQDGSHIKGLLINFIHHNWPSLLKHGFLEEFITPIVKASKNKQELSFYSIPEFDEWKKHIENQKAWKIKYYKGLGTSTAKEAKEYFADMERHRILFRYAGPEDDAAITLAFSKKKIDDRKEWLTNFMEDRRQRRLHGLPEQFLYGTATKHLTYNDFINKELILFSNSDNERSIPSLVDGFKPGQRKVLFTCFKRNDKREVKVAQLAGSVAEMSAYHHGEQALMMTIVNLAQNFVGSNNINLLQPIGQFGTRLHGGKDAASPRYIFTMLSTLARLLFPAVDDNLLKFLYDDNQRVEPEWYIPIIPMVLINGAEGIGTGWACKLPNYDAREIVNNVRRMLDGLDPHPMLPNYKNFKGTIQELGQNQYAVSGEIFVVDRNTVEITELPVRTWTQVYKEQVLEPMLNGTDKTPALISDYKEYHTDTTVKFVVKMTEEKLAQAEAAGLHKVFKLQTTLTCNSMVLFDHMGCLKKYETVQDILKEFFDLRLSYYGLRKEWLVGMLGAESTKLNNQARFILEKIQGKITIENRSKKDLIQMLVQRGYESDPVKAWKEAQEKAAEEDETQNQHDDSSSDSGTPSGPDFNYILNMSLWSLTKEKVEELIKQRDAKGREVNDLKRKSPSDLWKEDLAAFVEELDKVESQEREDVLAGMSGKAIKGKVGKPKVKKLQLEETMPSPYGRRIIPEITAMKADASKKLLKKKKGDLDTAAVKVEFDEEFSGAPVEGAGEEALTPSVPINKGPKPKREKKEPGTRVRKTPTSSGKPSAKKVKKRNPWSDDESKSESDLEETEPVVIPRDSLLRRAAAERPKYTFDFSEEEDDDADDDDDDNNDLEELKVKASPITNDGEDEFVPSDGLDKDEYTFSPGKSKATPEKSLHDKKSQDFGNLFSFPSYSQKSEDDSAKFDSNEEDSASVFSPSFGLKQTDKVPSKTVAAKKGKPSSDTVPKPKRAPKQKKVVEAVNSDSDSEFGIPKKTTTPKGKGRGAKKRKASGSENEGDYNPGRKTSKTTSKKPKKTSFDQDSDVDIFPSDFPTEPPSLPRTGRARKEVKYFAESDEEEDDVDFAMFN

[5] = test system: sorafenib treated cardiomyocytes; assay: Sorafenib-induced contractile dysfunction; assay type: cell-based, human; conditions: 5 μM sorafenib
[6] = test system: human induced pluripotent stem cell-derived cardiomyocytes (iPSC-CM)
[7] = test system: topoisomerase IIβ protein in human iPSC-derived cardiomyocytes; assay: TOPOIIβ protein level (immunostaining), 24 hours; assay type: cell-based; conditions: 100 μM
Experimental: To further distinguish molecular mechanisms of MYR from those of DEX and also to determine whether the inhibitory effects of MYR on TOPOII observed in the decatenation assays above is due to degradation of TOPOII proteins, human iPSC-derived cardiomyocytes were treated with DMSO, DEX (100 μM), or MYR (100 μM) for 24 hours, and immunostained with antibody against topoisomerase IIβ (BD Biosciences).
Cells were imaged using INCell Analyzer2200 (GE) and […] protein levels were quantified. Student T-Test (unpaired, two-tailed) was used to determine the significance of the difference.

[8] = test system: cardiomyocytes; assay: Bortezomib-induced cell death; assay type: cell-based, human; conditions: 100 μM myricetin
[9] = test system: Human iPSC-derived cardiomyocytes; assay: Mitochondrial toxicity imaging (TMRM) after doxorubicin, 2 days; assay type: cell-based; conditions: 1.25 μM doxorubicin + 79 μM myricetin vs 1.25 μM doxorubicin alone
Experimental: Following treatment, the samples were incubated with a tetramethylrhodamine methyl ester (TMRM) dye to indicate mitochondrial health, and Hoechst 33342 to identify cell nuclei. Cells were imaged using the INCell Analyzer2200.

[10] = test system: Human iPSC-derived cardiomyocytes; assay: DOX-induced contractility dysfunction (Pulse videos), 48 hours; assay type: cell-based
[11] = test system: TOPOIIα mRNA expression; assay: mRNA expression level in cardiomyocytes; assay type: cell-based
[12] = test system: MDA-MB-231 breast cancer cells; assay: Cell viability with doxorubicin (CellTiter-Glo); assay type: cell-based; conditions: co-treated with increasing concentrations of doxorubicin, 72 hours
[13] = test system: Human iPSC-derived cardiomyocytes; assay: Cytotoxicity of MYR analogs to cardiomyocytes; conditions: for cytotoxicity / toxic effects to cardiomyocytes (in words): at or below 100 μM as stated
[14] = test system: TOPOII enzymes (TOPOIIα and TOPOIIβ); assay: kDNA decatenation assay, TOPOIIα and TOPOIIβ jointly; assay type: biochemical; conditions: discussion of Table 1
Experimental: 200 ng of kinetoplast DNA (kDNA) was incubated with one enzymatic unit of TOPOIIα or TOPOIIβ enzyme (Inspiralis) and with various concentrations of MYR or DEX at 37° C. for 30 min. The reaction was then separated on 1% agarose gel for visualization of decatenated DNA (bottom band). The efficiency of catalytic inhibition was quantified by measuring the relative intensity of the band.

[15] = test system: cardiomyocytes derived from human induced pluripotent stem cells; assay: Doxorubicin-induced mitochondrial toxicity (TMRM-negative cells), 48 hours; assay type: cell-based; conditions: 1 μM doxorubicin, KAE 17 μM, AMB 0.76 μM, MES 10 μM, NAC 50 μM, Dex 160 μM, VIT 115 μM
Experimental: Following treatment, the samples were incubated with a tetramethylrhodamine methyl ester (TMRM) dye to indicate mitochondrial health, and a second dye to identify cell nuclei.

[16] = test system: Doxorubicin treated human iPSC-derived cardiomyocytes; assay: iPSC-CM protection of MYR analogs against doxorubicin; assay type: cell-based; conditions: discussion of Table 1
[17] = test system: induced pluripotent stem cell-derived cardiomyocytes; assay: Long term toxicity on electrophysiology (active electrodes, MEA); assay type: cell-based; conditions: for number of active electrodes relative to the mock-treated sample (in words): various concentrations, at least 5 days
Experimental: Samples were either mock-treated with 0.1% DMSO, or treated with various concentrations of the indicated drug. Following treatment, the percentage of active electrodes in each sample was measured for at least 5 days. Percentage of active electrodes was quantified and graphed in a time course.

[18] = biological target: T2, TOPOIIα (Homo sapiens, UniProt P11388); assay: kDNA decatenation assay; assay type: biochemical
T2 construct: purchased Inspiralis
T2 sequence (P11388 whole entry): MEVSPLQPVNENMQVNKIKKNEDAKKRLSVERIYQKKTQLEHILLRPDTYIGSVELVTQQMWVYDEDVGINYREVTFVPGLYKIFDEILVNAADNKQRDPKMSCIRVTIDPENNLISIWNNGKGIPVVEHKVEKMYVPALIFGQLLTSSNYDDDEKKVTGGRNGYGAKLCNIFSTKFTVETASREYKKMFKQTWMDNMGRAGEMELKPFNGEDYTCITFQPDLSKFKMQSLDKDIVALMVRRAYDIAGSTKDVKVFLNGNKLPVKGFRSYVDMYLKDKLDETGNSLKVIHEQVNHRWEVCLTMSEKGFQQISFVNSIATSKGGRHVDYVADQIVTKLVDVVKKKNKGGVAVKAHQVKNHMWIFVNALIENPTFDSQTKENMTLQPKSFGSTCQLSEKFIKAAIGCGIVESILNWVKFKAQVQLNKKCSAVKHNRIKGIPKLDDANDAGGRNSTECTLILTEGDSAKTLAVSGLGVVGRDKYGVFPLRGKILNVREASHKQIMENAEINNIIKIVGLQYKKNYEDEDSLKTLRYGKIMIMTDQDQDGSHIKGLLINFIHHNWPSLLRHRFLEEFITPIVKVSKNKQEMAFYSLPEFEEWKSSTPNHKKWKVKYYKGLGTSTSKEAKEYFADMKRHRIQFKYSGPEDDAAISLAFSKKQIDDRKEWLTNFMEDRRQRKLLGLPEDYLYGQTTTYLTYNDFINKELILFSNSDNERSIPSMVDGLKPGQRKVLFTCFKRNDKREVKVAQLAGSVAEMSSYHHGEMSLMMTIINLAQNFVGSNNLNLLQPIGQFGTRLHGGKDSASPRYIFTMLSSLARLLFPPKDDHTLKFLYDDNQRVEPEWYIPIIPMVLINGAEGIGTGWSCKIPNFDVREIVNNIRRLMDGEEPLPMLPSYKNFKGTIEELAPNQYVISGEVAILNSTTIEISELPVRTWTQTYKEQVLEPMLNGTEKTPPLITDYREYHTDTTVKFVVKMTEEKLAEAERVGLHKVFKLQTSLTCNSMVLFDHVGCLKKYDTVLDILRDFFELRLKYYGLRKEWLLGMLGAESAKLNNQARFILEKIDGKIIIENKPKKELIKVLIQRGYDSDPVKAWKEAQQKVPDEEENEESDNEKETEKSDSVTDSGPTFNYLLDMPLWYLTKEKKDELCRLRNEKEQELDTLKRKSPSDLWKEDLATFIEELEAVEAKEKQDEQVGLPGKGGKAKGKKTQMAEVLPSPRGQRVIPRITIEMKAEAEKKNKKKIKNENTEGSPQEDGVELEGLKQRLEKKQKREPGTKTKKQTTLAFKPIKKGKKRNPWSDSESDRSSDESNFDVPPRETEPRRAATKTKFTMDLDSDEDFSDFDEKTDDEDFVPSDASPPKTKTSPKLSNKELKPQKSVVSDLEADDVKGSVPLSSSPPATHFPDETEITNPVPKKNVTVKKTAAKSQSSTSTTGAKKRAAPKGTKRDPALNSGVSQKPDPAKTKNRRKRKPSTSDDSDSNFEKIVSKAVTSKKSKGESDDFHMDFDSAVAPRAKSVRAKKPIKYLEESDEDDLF

[19] = test system: A549 cells (lung cancer); assay: Cell viability with doxorubicin (CellTiter-Glo); assay type: cell-based; conditions: co-treated with increasing concentrations of doxorubicin, 72 hours
Experimental: A549 cells (lung cancer) were cultured for 1 day before performing experiments. […] XLFit was used for curve fitting.

[20] = in vitro; conditions: human
[21] = test system: C57BL/6 mice; assay: Acute anthracycline-induced cardiotoxicity model, echocardiography; assay type: in vivo; conditions: Doxorubicin 20 mg/kg single intraperitoneal injection, day 5
Source text: An acute anthracycline-induced cardiotoxicity model was established in 9-10 week old C57BL/6 mice obtained from The Jackson Laboratory. […] General health of the animals was monitored on a daily basis throughout the course of the study. […] Left ventricular (LV) M-mode images were obtained in the two-dimensional short axis view close to the papillary muscles. Tracings of endocardial tissue during systole and diastole were made off line.

[22] = test system: human induced pluripotent stem cell-derived cardiomyocytes; assay: Electrophysiological activity with doxorubicin (active electrodes, MEA); assay type: cell-based; conditions: 1 μM doxorubicin, in the absence of vitexin
Experimental: Samples were either mock-treated with 0.1% DMSO, treated with 1 μM doxorubicin, or co-treated with 1 μM doxorubicin and various concentrations of vitexin (e.g., 11.6 μM, 37 μM, or 116 μM). Following treatment, the percentage of active electrodes in each sample was measured for 72 hours. Percentage of active electrodes was quantified and graphed in a time course (FIG. 28A). The average number of active electrodes per well was quantified and graphed at 30 hours after the treatment (FIG. 28B, n=6, standard deviation is shown as error bars).

[23] = test system: human induced pluripotent stem cell-derived cardiomyocytes; assay: Long-term mitochondrial health (TMRM), 7 days; assay type: cell-based; conditions: 1 μM doxorubicin alone or with dexrazoxane or vitexin
Experimental: Following treatment, the samples were incubated with a tetramethylrhodamine methyl ester (TMRM) dye to indicate mitochondrial health. […] Representative images are presented for each sample, wherein loss of TMRM signal represents mitochondrial toxicity.

[24] = test system: induced pluripotent stem cell-derived cardiomyocytes; assay: Acute toxicity on electrophysiology (MEA beat period, field potential duration); assay type: cell-based; conditions: lower drug concentration, at least 20 minutes
Experimental: Samples were either mock-treated with 0.1% DMSO, or treated with increasing concentrations of the indicated drug for at least 20 minutes. Cardiomyocytes were treated with the hERG potassium channel blocker E4031 as a control. Following treatment, the beat period and field potential duration (FPD) were measured in each sample using the MEA.

[25] = agent alone, DOX at 24 and 48 hours

Structure (SMILES): C[C@@H]1O[C@@H](Oc2c(-c3cc(O)c(O)c(O)c3)oc3cc(O)cc(O)c3c2=O)[C@H](O)[C@H](O)[C@H]1O [myricitrin]
QT prolongation (in words) [1]: no signs of QT prolongation

IC50 [4]: 2070 nM
number of total cells, as compared to mock-treated control [6]: no significant difference
Structure (SMILES): O=c1c(O)c(-c2cc(O)c(O)c(O)c2)oc2cc(O)cc(O)c12 [Compound 1, 3,5,7,3′,4′,5′-hexahydroxyflavone]
protection against DOX-induced DNA double strand break (γH2AX-positive cells) [2]: significant protection
TOPOIIβ mRNA expression ([3]; DOX plus myricetin): restored to a level close to normal
TOPOIIβ mRNA expression [3, 25]: did not have any effect
QT prolongation (in words) [1]: no signs of QT prolongation
cardiac dysfunction in the patient ([1]; protective agent 100 mg co-formulated with, or 24 hours before, doxorubicin 10 mg): no indication of cardiac dysfunction
correction of cardiac dysfunction [5]: more than 80%
topoisomerase IIβ protein levels [7]: no effect
rescue of bortezomib-induced cardiotoxicity [8]: rescued bortezomib-induced cardiotoxicity
TMRM signal (protection against doxorubicin-induced mitochondrial toxicity) [9]: greater TMRM signal
correction of DOX-induced contractile dysfunction (beating, duration, peak height) ([10]; DOX 0.5 μM plus MYR 100 μM, compared to DEX 100 μM): significantly corrected
TOPOIIα mRNA expression ([11]; DOX plus myricetin): further repressed

TOPOIIβ Inhibition [4]: −
TOPOII (TOPOIIα and TOPOIIβ) inhibition (in words) [14]: did not exhibit any inhibitory effect
TOPOIIα Inhibition [18]: −
Structure (SMILES): O=c1c(O)c(-c2ccc(O)cc2)oc2cc(O)cc(O)c12 [Compound 7, 3,5,7,4′-tetrahydroxyflavone]
percentage of cell death vs doxorubicin in the absence of a protective agent [12]: no significant difference
Toxicity ([13]; 100 μM): −
cytotoxicity / toxic effects to cardiomyocytes (in words) ([13]; listed as Kaempferol): without some level of cytotoxicity at 100 μM
cytotoxicity / toxic effects to cardiomyocytes (in words) ([13]; listed as kaempferol): did not show toxic effects below 100 μM
decrease in mitochondrial toxicity vs doxorubicin alone [15]: at least 60%
cardioprotection (in words) [16]: moderate level of cardioprotection
number of active electrodes relative to the mock-treated sample (in words) [17]: no observable decrease
percentage of cell death vs doxorubicin in the absence of a protective agent [19]: no significant difference

Structure (SMILES): COc1cccc2c1C(=O)c1c(O)c3c(c(O)c1C2=O)C[C@@](O)(C(=O)CO)C[C@@H]3O[C@H]1C[C@H](N)[C@@H](O)[C@H](C)O1 [epirubicin]
CC50 at 72 h [20]: 490 nM

Structure (SMILES): COc1cccc2c1C(=O)c1c(O)c3c(c(O)c1C2=O)C[C@@](O)(C(=O)CO)C[C@@H]3O[C@H]1C[C@H](N)[C@H](O)[C@H](C)O1 [doxorubicin, reference compound]
decrease of ejection fraction (EF) [21]: 19%
decrease of fractional shortening (FS) [21]: 15%
TOPOIIβ mRNA expression [3, 25]: significantly repressed
decrease in the number of active electrodes ([22]; 24 hours): ~50%
decrease in the number of active electrodes, relative to time zero ([22]; 30 hours): ~95%
CC50 at 72 h [20]: 410 nM
mitochondrial toxicity / protection (TMRM-positive cells) [23]: increase in mitochondrial toxicity
cardiomyocyte contraction ([10]; DOX 0.5 μM): induced dysfunction in cardiomyocyte contraction
TOPOIIα mRNA expression ([11]; DOX alone, over time): slowly repressed

Structure (SMILES): CC(=O)[C@]1(O)Cc2c(O)c3c(c(O)c2[C@@H](O[C@H]2C[C@H](N)[C@H](O)[C@H](C)O2)C1)C(=O)c1ccccc1C3=O [Idarubicin, idarubicin]
CC50 at 72 h [20]: 590 nM

Structure (SMILES): Nc1ccc(O)c(C(=O)O)c1 [mesalamine]
percentage of cell death vs doxorubicin in the absence of a protective agent [12]: no significant difference
number of active electrodes relative to the mock-treated sample (in words) [17]: no observable decrease
percentage of cell death vs doxorubicin in the absence of a protective agent [19]: no significant difference

IC50 [4]: 34400 nM
topoisomerase IIβ protein levels [7]: marked disappearance of TOPOIIβ
IC50 ([18]; 37° C., 30 min, n=3, read-out: IC50 of TOPOIIα enzyme activity): 52700 nM
Structure (SMILES): C[C@@H](CN1CC(=O)NC(=O)C1)N1CC(=O)NC(=O)C1 [dexrazoxane]
percentage of cell death vs doxorubicin in the absence of a protective agent [12]: no significant difference
mitochondrial toxicity / protection (TMRM-positive cells) [23]: increase in mitochondrial toxicity
reduction in the number of active electrodes ([17]; 500 dexrazoxane, about 2 days post-treatment): ~50%
beat period or field potential duration, as compared to control samples [24]: no appreciable difference
percentage of cell death vs doxorubicin in the absence of a protective agent [19]: no significant difference

Structure (SMILES): Nc1c(Br)cc(Br)cc1CN[C@H]1CC[C@H](O)CC1 [ambroxol]
percentage of cell death vs doxorubicin in the absence of a protective agent [12]: no significant difference
number of active electrodes relative to the mock-treated sample (in words) [17]: no observable decrease
beat period or field potential duration, as compared to control samples [24]: no appreciable difference
percentage of cell death vs doxorubicin in the absence of a protective agent [19]: no significant difference
